The text below walks through data of PubChem BioAssay AID1208 (EPA DSSTox, 2008).

Calls of active or inactive are those of the source.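 How the source made its calls: active means at least one rat sex group has a carcinogenic potency value and tumor site recorded; inconclusive means only rat studies were judged inadequate by the national testing program; inactive means no potency or tumor site, with negative rat experiments.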

The subject of the data set is rat chronic carcinogenicity bioassay, TD50. Kind of data set: DSSTox (CPDBAS) Carcinogenic Potency Database Summary Rat Bioassay Results. The settings on record: for outcome: TD50_Rat_Note: no positive results; for Potency: stronger effect = lower value. An excerpt:
The Carcinogenic Potency Database (CPDB) is a unique and widely used international resource of the results of over 6500 chronic, long-term animal cancer tests on over 1500 chemical substances. The CPDB provides easy access to the bioassay literature, with qualitative and quantitative analyses of both positive and negative experiments that have been published over the past 50 years in the general literature and by the National Cancer Institute/National Toxicology Program. The CPDB standardizes the diverse literature of cancer bioassays that vary widely in protocol, histopathological examination and nomenclature, and in the published author's choices of what information to provide in their papers. Results are reported in the CPDB for tests in rats, mice, hamsters, dogs, and nonhuman primates, and are based on the most positive result among all experiments for each sex-species. The DSSTox CPDBAS (all species) file incorporates data from the CPDB Summary Tables for the full list of over 1500 chemical substances tested in at least one species. Summary bioassay results for Rat (TD50, tumor sites, male, female, both sexes) are provided in the CPDB Summary Tables and the DSSTox CPDBAS file for over 1200 chemical substances.
TD50 is a standardized quantitative measure of carcinogenic potency (analogous to an LD50) and is reported in the CPDB Summary Table for each species. Activity Score for actives is computed by mapping of LOG10 (1/TD50_Rat_mmol) activity values spanning range [MIN, MAX] onto Integer 1-100 Activity Score range, where 100 is highest potency and 1 is lowest: Activity Score = 100 * INTEGER[(log10(1/Activity) - MIN)/(MAX - MIN)]. If activity is reported but no TD50_Rat_mmol value is computed, such as for a mixture, the Activity Score is assigned the activity value "50". […] Target sites are reported for each sex-species group with a positive result in the CPDB on the basis of a positive author's opinion for the particular site, using all results from both the general literature and NCI/NTP bioassays. If a chemical has two or more target sites listed, the results may be from different experiments, and a single site may be a target organ in more than one experiment, as well. Blank entry in TargetSites field indicates no results reported.

Setting [1] is: TargetSites_Rat_Female: no positive results.
[2] abbreviates: TargetSites_Rat_BothSexes: stomach.
The mark [3] stands for this setting: TD50_Rat_Note: TD50 is harmonic mean of more than one positive test, TargetSites_Rat_Female: liver.

Regarding `C[C@@H]1O[C@@H](OC[C@H]2O[C@@H](Oc3c(-c4ccc(O)c(O)c4)oc4cc(O)cc(O)c4c3=O)[C@H](O)[C@@H](O)[C@@H]2O)[C@H](O)[C@H](O)[C@H]1O`, the outcome under setting [1] is “inactive; no positive results”.
In the case of `CC1CC(=O)O1` (stereo not drawn), the Potency (TargetSites_Rat_Female: stomach) is 13.8 mg/kg/day.
Regarding `C=C1CC[C@H](O)C/C1=C/C=C1\CCC[C@]2(C)[C@@H]([C@H](C)CC[C@@H](O)C(C)(C)O)CC[C@@H]12`, the outcome was “inactive; no positive results”.
As to `Cc1ccc(Cl)cc1N`, the outcome under setting [1] was “inactive; no positive results”.
Same read-out and setting: the value for `COC(=O)c1ccc(C(=O)OC)cc1` was “inactive; no positive results”.
With `CN(N=O)C(=O)Nc1nc2ccccc2s1`, the Potency under setting [2] was 1.13 mg/kg/day.
In the case of `Nc1cc(Cl)cc(C(=O)O)c1Cl`, under setting [1], the outcome was “inactive; no positive results”.
For `COc1cc2c(c3oc(=O)c4c(c13)CCOC4=O)C1C=COC1O2` (stereo not drawn), the Potency (TD50_Rat_Note: TD50 is harmonic mean of more than one positive test, TD50_Rat_mmol was not calculated for this mixture, but Activiity S) is 0.00299 mg/kg/day.
Regarding `O.O.O.O.O.O.O.O.O=S(=O)([O-])[O-].O=S(=O)([O-])[O-].O=S(=O)([O-])[O-].[Cd+2].[Cd+2].[Cd+2]`, the outcome was “inactive; no positive results”.
On to `CN1C(C(=O)Nc2ccccn2)=C(O)c2sc(Cl)cc2S1(=O)=O`, for which the outcome under setting [1] is “inactive; no positive results”.
On the same count and under the same terms, the value for `CCC(Br)(CC)C(=O)NC(N)=O` was “inactive; no positive results”.
Take `C#C[C@]1(O)CC[C@H]2[C@@H]3CCc4cc(O)ccc4[C@H]3CC[C@@]21C`: the Potency (TargetSites_Rat_Female: liver) is 0.2 mg/kg/day.
`CN(N=O)C(=O)c1c(N(C)N=O)ncn1C`: the Potency under setting [2] was 0.183 mg/kg/day.
Turning to `Cc1ccc(OP(=O)(Oc2ccc(C)cc2)Oc2ccc(C)cc2)cc1`, the outcome under setting [1] is “inactive; no positive results”.
Regarding `FC(F)=C(F)F`, the Potency (TD50_Rat_Note: TD50 is harmonic mean of more than one positive test, TargetSites_Rat_Female: hematopoietic system, kidney, liver, vascular system) is 107 mg/kg/day.
Take `CC1=C(C)C(=O)C(C(CCCCCC(=O)O)c2ccccc2)=C(C)C1=O` (stereo not drawn): the outcome under setting [1] was “inactive; no positive results”.
In the case of `N[C@@H](CC(=O)O)C(=O)O`, the outcome under setting [1] was “inactive; no positive results”.
On to `CCCCC1C(=O)N(c2ccccc2)N(c2ccccc2)C1=O`, for which the Potency (TargetSites_Rat_Female: kidney) was 1160 mg/kg/day.
For the molecule `O.O=S(=O)([O-])[O-].[Mn+2]`, under setting [1], the outcome is “inactive; no positive results”.
For `CN(C)P(=O)(N(C)C)N(C)C`, the Potency (TD50_Rat_Note: TD50 is harmonic mean of more than one positive test, TargetSites_Rat_BothSexes: nasal cavity) was 0.0344 mg/kg/day.
For `N[C@@H](Cc1cnc[nH]1)C(=O)O`, under setting [1], the outcome is “inactive; no positive results”.
The same measure, in the same setting: with `O=NN1CCOC(O)C1` (stereo not drawn) the entry was “inactive”; with `COC(=O)C(c1ccccc1)C1CCCCN1` (stereo not drawn), “inactive; no positive results”; with `C=CCOc1ccccc1OCC(O)CNC(C)C` (stereo not drawn), “inactive; no positive results”.
For the molecule `Nc1cccc2c(N)cccc12`, the Potency (TargetSites_Rat_Female: clitoral gland, uterus) is 69.6 mg/kg/day.
Take `CC(=O)O[C@@H]1[C@@H](O)C2OC3C=C(C)C(=O)C(O)[C@@]3(CO)[C@]1(C)[C@]21CO1` (stereo partly drawn): the outcome was “inactive; no positive results”.
Same read-out and setting: the value for `O=C1CC(=O)NC(=O)N1` was “inactive; no positive results”.
Take `O=NN1CC(=O)NC1=O`: under “TD50_Rat_Note: TD50 is harmonic mean of more than one positive test, TargetSites_Rat_Female: all tumor bearing animals”, the Potency was 43.8 mg/kg/day.
For the molecule `Nc1ccc(N=Nc2ccc(-c3ccc(N=Nc4c(S(=O)(=O)O)cc5cc(S(=O)(=O)O)c(N=Nc6ccccc6)c(O)c5c4N)cc3)cc2)c(N)c1`, the Potency under setting [3] was 1.39 mg/kg/day.
As for `O=C1N(CCO)CCN1/N=C/c1ccc([N+](=O)[O-])o1`, the Potency (TargetSites_Rat_Female: mammary gland) was 16.7 mg/kg/day.
As to `CC(=O)CN(C)N=O`, where the note is “TD50_Rat_Note: TD50 is harmonic mean of more than one positive test, TargetSites_Rat_Female: esophagus, liver, nasal cavity, oral cavity”, the Potency is 0.0172 mg/kg/day.
Turning to `ClCC(Cl)CCl`, the Potency (TD50_Rat_Note: TD50 is harmonic mean of more than one positive test, TargetSites_Rat_Female: clitoral gland, ear Zymbals gland, mammary gland, oral cavity, stomach) is 1.35 mg/kg/day.
As for `CCN(CC)CCOc1ccc(C(O)(Cc2ccc(OC)cc2)c2ccccc2)cc1` (stereo not drawn), the outcome under setting [1] was inactive.
Take `CCCCCC(/C=C/C=C\CCCCCCCC(=O)OC)OO` (stereo not drawn): the outcome was “inactive; no positive results”.
As for `C=CN1CCCC1=O`, the Potency (TD50_Rat_Note: TD50 is harmonic mean of more than one positive test, TargetSites_Rat_Female: liver, nasal cavity, oral cavity) is 12 mg/kg/day.
For `COc1cc2c(c3oc(=O)c4c(c13)CCC4=O)C1C=COC1O2` (stereo not drawn), where the note is “TD50_Rat_Note: TD50 is harmonic mean of more than one positive test, harmonic mean of TD50 includes a value for upper 99% confidence li, TargetSites_Rat_Female: large intestine, liver”, the Potency is 0.0032 mg/kg/day.
With `O=C(O)c1cc(O)c(O)c(O)c1`, the outcome was “inactive; no positive results”.
Consider `Cc1ccc([N+](=O)[O-])cc1N`, for which, under setting [1], the outcome was “inactive; no positive results”.
Consider `Cc1ccc2c(c1[N+](=O)[O-])C(=O)c1ccccc1C2=O`, for which the Potency under setting [3] was 84.8 mg/kg/day.
For `NC1=NC(=O)C(c2ccccc2)O1` (stereo not drawn), the outcome under setting [1] was inactive.
Same read-out and setting: the value for `CC(=O)Nc1ccc(CC(=O)O)cc1` was “inactive; no positive results”; that for `CCN=c1cc2oc3cc(NCC)c(C)cc3c(-c3ccccc3C(=O)OCC)c-2cc1C` was “inactive; no positive results”; that for `CC(O)C(=O)O` (stereo not drawn) was “inactive; no positive results”.
Still for that read-out and setting: with `ClC1=C(Cl)C(Cl)(Cl)C(Cl)=C1Cl` the entry was “inactive; no positive results”.
As to `CCc1ccccc1`, for the setting “TD50_Rat_Note: TD50 is harmonic mean of more than one positive test, greater than ten-fold variation among TD50 values for positive res, TargetSites_Rat_Female: Maltoni head cancers, kidney”, the Potency is 72.6 mg/kg/day.
Turning to `O=NN1CCCCCCCCCCCC1`, the Potency under setting [3] was 10.9 mg/kg/day.
For `CCCN(CCC)c1ccc(N=Nc2cc[n+]([O-])cc2)cc1`, the outcome was “inactive; no positive results”.
For the molecule `CN(CCCO)N=O`, the Potency (TD50_Rat_Note: TD50 is harmonic mean of more than one positive test, TargetSites_Rat_Female: liver, lung) was 1.66 mg/kg/day.
With `CN(CCc1ccccc1)N=O`, where the note is “TD50_Rat_Note: TD50 is harmonic mean of more than one positive test”, the Potency was 0.00998 mg/kg/day.
`COc1cc(O)c2c(=O)c3c(OC)cc4c(c3oc2c1OC)C1C=COC1O4` (stereo not drawn): where the note is “TD50_Rat_Note: TD50 value is overestimated as upper 99% confidence limit from study with 100% tumor incidence but no lifetable, harmoni”, the Potency is 0.364 mg/kg/day.
On to `ClC1C2(Cl)C3C4C5OC5C5C4C1(Cl)C(Cl)(C53)C2(Cl)Cl` (stereo not drawn), for which, under setting [1], the outcome is “inactive; no positive results”.
`Nc1ccc(Nc2ccccc2)cc1`: the outcome under setting [1] was “inactive; no positive results”.
For the molecule `O=c1oc2c(O)c(O)cc3c(=O)oc4c(O)c(O)cc1c4c23`, under setting [1], the result was inactive.
On to `O=[N+]([O-])c1ccc(Cl)c([N+](=O)[O-])c1`, for which the outcome was “inactive; no positive results”.
On to `C[C@@H]1CCCCN1N=O`, for which, for the setting “TargetSites_Rat_BothSexes: nervous system”, the Potency was 20.4 mg/kg/day.
Consider `CN(N=O)c1ccccn1`, for which, where the note is “TargetSites_Rat_Female: esophagus”, the Potency was 0.214 mg/kg/day.
As for `O=CNNc1nc(-c2ccc([N+](=O)[O-])o2)cs1`, the Potency (TD50_Rat_Note: TD50 is harmonic mean of more than one positive test, TargetSites_Rat_Female: ear Zymbals gland, hematopoietic system, kidney, large intestine, liver, mammary gland, small intestine) is 5.06 mg/kg/day.
On to `C=CCOc1ccc(CC(=O)O)cc1Cl`, for which the outcome under setting [1] was “inactive; no positive results”.
With `O=NN1CCC(O)C1` (stereo not drawn), the Potency (TargetSites_Rat_BothSexes: all tumor bearing animals) was 7.65 mg/kg/day.
Turning to `O=C1Nc2ccc(Cl)cc2C(c2ccccc2)=NC1O` (stereo not drawn), the outcome under setting [1] was “inactive; no positive results”.
Regarding `CN(N=O)c1ccc(F)cc1`, the Potency is 0.255 mg/kg/day.
Take `C=CCN(CC(O)CO)N=O` (stereo not drawn): the Potency (TargetSites_Rat_Female: esophagus, nasal cavity) was 0.825 mg/kg/day.
With `Clc1ccc(C(c2ccc(Cl)cc2)C(Cl)Cl)cc1`, the outcome under setting [1] is “inactive; no positive results”.
On the same count and under the same terms, with `O=c1c(O)c(-c2ccc(O)cc2)oc2cc(O)cc(O)c12` the entry was “inactive; no positive results”.
Regarding `CC(F)(Cl)Cl`, the Potency under setting [1] was 5260 mg/kg/day.
Take `Clc1ccc(-c2cccc(Cl)c2Cl)c(Cl)c1`: for the setting “TD50_Rat_Note: TD50 is harmonic mean of more than one positive test, TD50_Rat_mmol was not calculated for this mixture, but Activiity S, TargetSites_Rat_Female: liver”, the Potency was 11.8 mg/kg/day.
For the molecule `CCC1(c2ccccc2)C(=O)NCNC1=O`, the outcome under setting [1] was “inactive; no positive results”.
With `CCCCC/C=C\C/C=C\CCCCCCCC(=O)OC`, the outcome is “inactive; no positive results”.
